Measured values as given in US10633579B2, “Use of environmentally friendly solvents to replace glycol-based solvents” (RHODIA OPERATIONS, priority 2011, dated 2020).

Columns and labels:
Type in all cases: physicochemical
[1] = Miscibility of alkyldimethylamides as stated in the text
[2] = Surface tension by the ring method (Du Nouy method); settings: undiluted solvent, about 50 milliliters sample
Method: Surface Tension: Referring generally to Table 2, interfacial tension is measured for each test solvent or solvent blend for EGMBE-replacement. No further dilution is performed on the solvent prior to measurement. Interfacial tension was measured using about 50 milliliters sample by the ring method (Du Nouy method).

[3] = Blends miscible in water and in mud solvents (Table 6); settings: 50/50 wt, room temperature
Method: Miscibility Test: Referring generally to Tables 4-6, the test solvent or solvent blend for EGMBE-replacement is mixed with common solvents used in oilfield industries to determine miscibility. […] It is shaken vigorously for about a minute and let stand for about 5 mins. A complete miscibility is recorded if there is no formation of layers. Formation of turbid mixture or multiple layers is recorded as immiscible or separate.

[4] = Wettability of EGMBE compared with alternative solvents/blends
[5] = Miscibility test with common oilfield solvents (Tables 3-5); parameters: key: S = separate; M = miscible; settings: 50/50 volume per volume; for Solubility in Crude oil: shaken about a minute, let stand about 5 mins
Method: For each test solvent, it is blended with a common solvent at 50/50 volume per volume ratio. It is shaken vigorously for about a minute and let stand for about 5 mins. A complete miscibility is recorded if there is no formation of layers. Formation of turbid mixture or multiple layers is recorded as immiscible or separate.

SMILES	ST (surface tension) [2] [mN/m]	wettability, Mean (°) [4] [°]	Solubility in Alpha Olefin C1618 [5]	Solubility in Brines (Forties FW) [5]	Solubility in D-Limonene [5]	Solubility in Dodecane (to mimic Kerosen) [5]	Solubility in Exxsol D100 [5]	Solubility in Solvesso 150 ND [5]	Solubility in Water [5]	Solubility in isoparrafin [5]	Solubility in isopropanol [5]	Solubility in toluene [5]	Solubility in xylene [5]	Solubility in Crude oil [5]	further results
CCCCCCCC(=O)N(C)C [N,N-dimethyloctanamide]															miscibility [1]: 0.43%
CCCCOCCO [EGMBE, ethyleneglycolmonobutyl ether]	26.3757	45.0													Miscibility in Alpha Olefin C1618 [3]: miscible; Miscibility in D-Limonene [3]: miscible; Miscibility in Exxsol D100 [3]: miscible; Miscibility in Isopar L [3]: miscible; Miscibility in Water [3]: miscible; Miscibility in xylene [3]: miscible
CCCCOCC(C)O (stereo not shown) [Dowanol, propylene glycol n-butyl ether]		29.8	M	S	M	M	M	M	S	M	M	M	M	M	
CCCCOCCOCCO [Butyl Carbitol, diethylene glycol butyl ether]		50.8													
O [Water]		109.2													
CC(C)O [IPA, isopropyl alcohol]			M	M	M	M	M	M	M	M	M	M	M	M	
CC1(C)OCC(CO)O1 (stereo not shown) [Augeo SL 191]	31.9988	50.5	S	M	M	S	S	M	M	S	M	M	M	S	
COC(=O)C(C)CCC(=O)N(C)C (stereo not shown) [Polarclean]	33.871	48.9	S	M	M	S	S	M	M	S	M	M	M	S	
